In patent US20060116390A1, “Hepatitis c virus inhibitors” (priority 2003, published 2006):
Like-named read-outs stand apart in the source and are kept apart here.

Tested on: HCV proteins in Rep5.1 cells (replicon cell line)
Assay: Inhibitory activity of HCV: cell-based ELISA in replicon cell line Rep5.1 (decrease of HCV proteins)
Design: species or system hepatitis C virus
Conditions: Hepatitis C virus, 72 h, Rep5.1 cells, 72 hours with drug
How it was run: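 Rep5.1 replicon cells (5000/well, DMEM-10 with 500 μg/ml G418) were given serially diluted drug 4 h after seeding. After 72 h, cells were fixed in methanol/acetone and HCV proteins detected by cell-based ELISA using replicon-specific patient plasma antibodies. IC50 is the concentration giving 50% protein decrease versus the no-drug control.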

[1] = concentration at which 50% of HCV proteins was decreased, Table 2, read-out: IC50
[2] = decrease of HCV proteins measured by HCV antibody, Table 1, read-out: Level (IC50 values classified)

Row | SMILES | IC50 [1] | IC50 [2]
1 | O=C(OCc1ccccc1)C1=C(C(F)(F)F)NC(=S)NC1 [Compound 146, 2-thioxo-6-trifluoromethyl-1,2,3,4-tetrahydro-pyrimidine-5-carboxylic acid benzyl ester] | > 100000 nM | > 20000 nM
2 | CC1=C(C(=O)OCc2cccc(SC(F)(F)F)c2)C(CO)NC(=S)N1 (centres unmarked) [33″, 4-hydroxymethyl-6-methyl-2-thioxo-1,2,3,4-tetrahydro-pyrimidine-5-carboxylic acid 3-trifluoromethylsulfanyl-benzyl ester] | < 400 nM | < 1000 nM
3 | CC1=C(C(=O)OC2CCc3c2csc3Cl)CNC(=S)N1 (centres unmarked) [21′, 6-methyl-2-thioxo-1,2,3,4-tetrahydro-pyrimidine-5-carboxylic acid 1-chloro-5,6-dihydro-4H-cyclopenta[c]thiophen-4-yl ester] | 400 nM | < 1000 nM
4 | O=C(OCc1ccccc1)C1=C(c2cccc3ccccc23)NC(=S)NC1 [Compound 17, 6-naphthalen-1-yl-2-thioxo-1,2,3,4-tetrahydro-pyrimidine-5-carboxylic acid benzyl ester] | 100000 nM | > 20000 nM
5 | CCOc1cc(COC(=O)C2=C(C)NC(=S)NC2)cc(OCC)c1 [Compound 150, 6-methyl-2-thioxo-1,2,3,4-tetrahydro-pyrimidine-5-carboxylic acid 3,5-diethoxy-benzyl ester] | 1000 nM | < 1000 nM
6 | COCCN(C)c1ccc(CCOC(=O)C2=C(C)NC(=S)NC2)cc1 [Compound 209, 6-methyl-2-thioxo-1,2,3,4-tetrahydro-pyrimidine-5-carboxylic acid 2-{4-[(2-methoxy-ethyl)-methyl-amino]-phenyl}-ethyl ester] | < 400 nM | < 1000 nM
7 | CC1=C(C(=O)OCCc2ccc(Cl)c(Cl)c2)C(CO)NC(=S)N1 (centres unmarked) [42″, 4-hydroxymethyl-6-methyl-2-thioxo-1,2,3,4-tetrahydro-pyrimidine-5-carboxylic acid 2-(3,4-dichloro-phenyl)-ethyl ester] | < 400 nM | < 1000 nM
8 | CC1=C(C(=O)OCC2CCCCC2)CNC(=S)N1 [Compound 29, 6-methyl-2-thioxo-1,2,3,4-tetrahydro-pyrimidine-5-carboxylic acid cyclohexylmethyl ester] | 300 nM | < 1000 nM
9 | CC1=C(C(=O)OCc2ccccc2S(=O)(=O)CC(C)C)CNC(=S)N1 [Compound 113, 6-methyl-2-thioxo-1,2,3,4-tetrahydro-pyrimidine-5-carboxylic acid 2-(2-methyl-propane-1-sulfonyl)-benzyl ester] | > 100000 nM | > 20000 nM
10 | CC1=C(C(=O)OCc2ccc(SC(F)(F)F)cc2)CNC(=S)N1 [Compound 199, 6-methyl-2-thioxo-1,2,3,4-tetrahydro-pyrimidine-5-carboxylic acid 4-trifluoromethylsulfanyl-benzyl ester] | < 400 nM | < 1000 nM
11 | CC1=C(C(=O)OCCc2ccc([N+](=O)[O-])cc2)CNC(=S)N1 [Compound 119, 6-methyl-2-thioxo-1,2,3,4-tetrahydro-pyrimidine-5-carboxylic acid 2-(4-nitro-phenyl)-ethyl ester] | 1300 nM | 1000 to 10000 nM
12 | CC1=C(C(=O)OCc2cccc(C(F)(F)F)c2)CNC(=S)N1 [Compound 101, 6-methyl-2-thioxo-1,2,3,4-tetrahydro-pyrimidine-5-carboxylic acid 3-trifluoromethyl-benzyl ester] | < 400 nM | < 1000 nM
13 | CC1=C(C(=O)OCCc2ccccc2)C(CF)NC(=S)N1 (centres unmarked) [33′, 4-fluoromethyl-6-methyl-2-thioxo-1,2,3,4-tetrahydro-pyrimidine-5-carboxylic acid phenethyl ester] | 1000 nM | < 1000 nM
14 | CC1=C(C(=O)OCCc2cccc(Cl)c2)C(CF)NC(=S)N1 (centres unmarked) [70′, 4-fluoromethyl-6-methyl-2-thioxo-1,2,3,4-tetrahydro-pyrimidine-5-carboxylic acid 2-(3-chloro-phenyl)-ethyl ester] | 1000 nM | < 1000 nM
15 | CC1=C(C(=O)OCc2cccc3ccccc23)CNC(=S)N1 [Compound 10, 6-methyl-2-thioxo-1,2,3,4-tetrahydro-pyrimidine-5-carboxylic acid naphthalen-1-ylmethyl ester] | 1000 nM | < 1000 nM
16 | CC1=C(C(=O)OCc2ccsc2)CNC(=S)N1 [Compound 139, 6-methyl-2-thioxo-1,2,3,4-tetrahydro-pyrimidine-5-carboxylic acid thiophen-3-ylmethyl ester] | 7000 nM | 1000 to 10000 nM
17 | CC1=C(C(=O)OCCc2scnc2C)CNC(=S)N1 [Compound 24, 6-methyl-2-thioxo-1,2,3,4-tetrahydro-pyrimidine-5-carboxylic acid 2-(4-methyl-thiazol-5-yl)-ethyl ester] | 70000 nM | > 20000 nM

Row | SMILES | IC50 [1] | IC50 [2]
18 | O=C(OCCc1ccsc1)C1=CNC(=S)NC1 [Compound 261, 2-thioxo-1,2,3,4-tetrahydro-pyrimidine-5-carboxylic acid 2-thiophen-3-yl-ethyl ester] | 800 nM | < 1000 nM
19 | CC1=C(C(=O)OCCOCCc2ccsc2)C(CO)NC(=S)N1 (centres unmarked) [16″, 4-hydroxymethyl-6-methyl-2-thioxo-1,2,3,4-tetrahydro-pyrimidine-5-carboxylic acid 2-(2-thiophen-3-yl-ethoxy)-ethyl ester] | > 100000 nM | > 20000 nM
20 | CC1=C(C(=O)OCCc2cc(F)cc(F)c2)C(CO)NC(=S)N1 (centres unmarked) [57″, 4-hydroxymethyl-6-methyl-2-thioxo-1,2,3,4-tetrahydro-pyrimidine-5-carboxylic acid 2-(3,5-difluoro-phenyl)-ethyl ester] | 6400 nM | 1000 to 10000 nM
21 | COC(=O)CCCCCCCCCOC(=O)C1=C(C)NC(=S)NC1 [Compound 198, 6-methyl-2-thioxo-1,2,3,4-tetrahydro-pyrimidine-5-carboxylic acid 9-methoxycarbonyl-nonyl ester] | 10000 nM | 1000 to 10000 nM
22 | CC1=C(C(=O)OCCc2sccc2C)CNC(=S)N1 [Compound 257, 6-methyl-2-thioxo-1,2,3,4-tetrahydro-pyrimidine-5-carboxylic acid 2-(3-methyl-thiophen-2-yl)-ethyl ester] | < 400 nM | < 1000 nM
23 | CC1=C(C(=O)OCCc2ccc(N3CCCCC3)c([N+](=O)[O-])c2)C(CO)NC(=S)N1 (centres unmarked) [100″, 4-Hydroxymethyl-6-methyl-2-thioxo-1,2,3,4-tetrahydro-pyrimidine-5-carboxylic acid 2-(3-nitro-4-piperidin-1-yl-phenyl)-ethyl ester] | 900 nM | < 1000 nM
24 | COC(=O)c1ccc(COC(=O)C2=C(C)NC(=S)NC2)cc1 [Compound 11, 6-methyl-2-thioxo-1,2,3,4-tetrahydro-pyrimidine-5-carboxylic acid 4-methoxycarbonyl-benzyl ester] | > 100000 nM | > 20000 nM
25 | CC1=C(C(=O)OCCc2ccc(F)cc2Cl)C(CF)NC(=S)N1 (centres unmarked) [86′, 4-fluoromethyl-6-methyl-2-thioxo-1,2,3,4-tetrahydro-pyrimidine-5-carboxylic acid 2-(2-chloro-4-fluoro-phenyl)-ethyl ester] | < 400 nM | < 1000 nM
26 | CC1=C(C(=O)OCc2cc(Cl)cc(Cl)c2)C(CO)NC(=S)N1 (centres unmarked) [34″, 4-hydroxymethyl-6-methyl-2-thioxo-1,2,3,4-tetrahydro-pyrimidine-5-carboxylic acid 3,5-dichloro-benzyl ester] | 2600 nM | 1000 to 10000 nM
27 | CC1=C(C(=O)OCC2CC=CCC2)C(CF)NC(=S)N1 (centres unmarked) [44′, 4-fluoromethyl-6-methyl-2-thioxo-1,2,3,4-tetrahydro-pyrimidine-5-carboxylic acid cyclohex-3-enylmethyl ester] | 2800 nM | 1000 to 10000 nM
28 | CC1=C(C(=O)OCc2cc(Br)cs2)CNC(=S)N1 [Compound 204, 6-methyl-2-thioxo-1,2,3,4-tetrahydro-pyrimidine-5-carboxylic acid 4-bromo-thiophen-2-ylmethyl ester] | < 400 nM | < 1000 nM
29 | CCc1ccc(CCCOC(=O)C2=C(C)NC(=S)NC2CO)o1 (centres unmarked) [19″, 4-hydroxymethyl-6-methyl-2-thioxo-1,2,3,4-tetrahydro-pyrimidine-5-carboxylic acid 3-(5-ethyl-furan-2-yl)-propyl ester] | 1400 nM | 1000 to 10000 nM
30 | C=C(C)[C@@H]1CC=C(COC(=O)C2=C(C)NC(=S)NC2)CC1 [Compound 96, 6-methyl-2-thioxo-1,2,3,4-tetrahydro-pyrimidine-5-carboxylic acid (s)-(−)-4-isopropenyl-cyclohex-1-enylmethyl ester] | < 400 nM | < 1000 nM
31 | CC1=C(C(=O)OCCc2ccccc2)CNC(=S)N1 [Compound 34, 6-methyl-2-thioxo-1,2,3,4-tetrahydro-pyrimidine-5-carboxylic acid phenethyl ester] | 2000 nM | 1000 to 10000 nM
32 | CCOC(=O)C1NC(=S)NC(C)=C1C(=O)OCCc1ccsc1 (centres unmarked) [6′, 6-methyl-2-thioxo-1,2,3,4-tetrahydro-pyrimidine-4,5-dicarboxylic acid 4-ethyl ester 5-(2-thiophen-3-yl-ethyl) ester] | > 100000 nM | > 20000 nM
33 | CC1=C(C(=O)OCc2ccc3ncsc3c2)CNC(=S)N1 [Compound 248, 6-methyl-2-thioxo-1,2,3,4-tetrahydro-pyrimidine-5-carboxylic acid benzothiazol-6-ylmethyl ester] | 5000 nM | 1000 to 10000 nM
34 | CC1=C(C(=O)OC2CCc3ccccc32)CNC(=S)N1 (centres unmarked) [Compound 123, 6-methyl-2-thioxo-1,2,3,4-tetrahydro-pyrimidine-5-carboxylic acid indan-1-yl ester] | 8000 nM | 1000 to 10000 nM
